These are literature values, as cited in US6414126B1, “C-aryl glucoside SGLT2 inhibitors and method” (Bristol-Myers Squibb Company, priority 1999, dated 2002).

One data set has as its target T1, human SGLT1 (Homo sapiens, UniProt P13866).
T1 sequence (P13866 1-664): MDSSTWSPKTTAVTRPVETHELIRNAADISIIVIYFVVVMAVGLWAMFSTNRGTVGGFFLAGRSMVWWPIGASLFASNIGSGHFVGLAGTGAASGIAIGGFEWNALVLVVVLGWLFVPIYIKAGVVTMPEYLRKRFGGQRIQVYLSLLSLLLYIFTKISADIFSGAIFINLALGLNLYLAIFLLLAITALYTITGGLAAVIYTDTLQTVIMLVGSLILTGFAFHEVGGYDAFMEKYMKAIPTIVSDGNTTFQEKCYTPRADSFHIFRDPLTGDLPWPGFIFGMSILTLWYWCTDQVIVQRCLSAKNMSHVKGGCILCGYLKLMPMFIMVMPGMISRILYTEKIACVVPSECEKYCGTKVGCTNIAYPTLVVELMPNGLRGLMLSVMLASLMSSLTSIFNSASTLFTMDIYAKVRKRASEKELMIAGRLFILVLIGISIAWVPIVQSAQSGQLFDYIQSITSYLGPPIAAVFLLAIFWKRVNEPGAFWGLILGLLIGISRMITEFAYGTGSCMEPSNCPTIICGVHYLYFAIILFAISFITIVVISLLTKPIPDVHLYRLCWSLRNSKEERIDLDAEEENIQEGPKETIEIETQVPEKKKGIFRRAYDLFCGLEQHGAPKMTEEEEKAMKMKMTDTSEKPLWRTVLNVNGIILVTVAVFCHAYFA
Conditions: SGLT1 transporter; read-out: Km values for uptake.

The next data set deals with T2, human SGLT2 (Homo sapiens, UniProt P31639).
T2 sequence (P31639 1-672): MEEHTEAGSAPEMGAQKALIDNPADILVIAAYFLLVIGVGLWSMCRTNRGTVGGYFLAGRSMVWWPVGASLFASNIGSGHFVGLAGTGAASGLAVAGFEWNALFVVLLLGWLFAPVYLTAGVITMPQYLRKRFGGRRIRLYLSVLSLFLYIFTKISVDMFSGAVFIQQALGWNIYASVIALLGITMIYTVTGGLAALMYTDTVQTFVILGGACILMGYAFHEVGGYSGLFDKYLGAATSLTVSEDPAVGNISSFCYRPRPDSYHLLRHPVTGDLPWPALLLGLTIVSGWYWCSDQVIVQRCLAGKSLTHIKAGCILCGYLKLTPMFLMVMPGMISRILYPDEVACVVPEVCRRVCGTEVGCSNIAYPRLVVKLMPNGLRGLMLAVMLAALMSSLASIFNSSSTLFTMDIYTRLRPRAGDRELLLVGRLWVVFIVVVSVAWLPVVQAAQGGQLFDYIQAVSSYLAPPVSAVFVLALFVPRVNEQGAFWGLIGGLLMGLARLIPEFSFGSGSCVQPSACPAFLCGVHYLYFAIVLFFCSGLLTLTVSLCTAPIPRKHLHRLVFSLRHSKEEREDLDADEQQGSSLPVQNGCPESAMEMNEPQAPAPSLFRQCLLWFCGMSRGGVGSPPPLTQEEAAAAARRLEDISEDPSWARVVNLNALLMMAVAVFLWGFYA
Conditions: SGLT2 transporter; read-out: Km values for uptake.

SMILES strings stand for the structures.

For the compound `CO[C@H]1O[C@H](CO)[C@@H](O)[C@H](O)[C@H]1O` [AMG, α-methyl-D-glucopyranoside], the Km at human SGLT1 is 400 µM; on human SGLT2 it was 1600 µM.

Broadly, the Km is the concentration of substrate that gives half-maximal velocity.
